Results from US11414431B2, “Substituted pyrazolo[1,5-a]pyrimidines as TYK2 inhibitors” (Nimbus Lakshmi, Inc., priority 2018, dated 2022).

Assays:
[1] = target: human TYK2 (JH2domain-pseudokinase) (Homo sapiens (Human), UniProt P29597); test: TYK2 JH2 Domain Binding Assay (KINOMEscan); conditions: 11-point 3-fold dilution, top concentration 30,000 nM, duplicate; read-out: hTYK2_JH2_Binding (Kd; nM)
Method in brief: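 KINOMEscan competition binding: HEK293-expressed NFkB-fused TYK2 JH2 (G556–D888), DNA-tagged, against immobilized ligand beads, 1 h shaking at room temperature, 0.9% DMSO. Bound kinase quantified by qPCR.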

[2] = target: TYK2 (Homo sapiens (Human), UniProt P29597); test: TYK2 Radioactive Kinase Assay; type: biochemical; conditions: compound at 10 μM; peptide substrate […]; read-out: TYK2 (% Inhibition at 10 μM)
[3] = target: JAK2 (Homo sapiens (Human), UniProt O60674); test: JAK2 Radioactive Kinase Assay; type: biochemical; conditions: compound at 10 μM; substrate poly[Glu:Tyr] (4:1); read-out: JAK2 (% Inhibition at 10 μM)
Protocol: Peptide substrate, [[…]], (20 μM) was prepared in reaction buffer (20 mM Hepes pH 7.5, 10 mM MgCl2, 1 mM EGTA, 0.02% Brij35, 0.02 mg/mL BSA, 0.1 mM […], 2 mM DTT, 1% DMSO. TYK2 (Invitrogen) kinase was added, followed by compounds in DMSO. 33PATP was added to initiate the reaction in ATP at […]. Kinase reaction was incubated for 120 min at room temp and reactions were spotted onto P^81 ion exchange paper (Whatman #3698-915), and then washed extensively in 0.75% phosphoric acid, prior to reading the radioactivity counts. For JAK2 (Invitrogen) kinase assay the peptide substrate poly[Glu:Tyr] (4:1), 0.2 mg/mL was used, in the reaction carried out the same as for TYK2.

[4] = system: IL-12 induced STAT4 phosphorlyation mediated by TYK2/JAK2; test: IL-12 Induced pSTAT4 in Human PBMC; type: cell-based; conditions: 0.5 h, 1.7 ng/mL IL-12 for 30 minutes
Method in brief: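 pSTAT4 and total STAT4 quantified by MSD in lysates of cryopreserved human PBMC after 30-minute stimulation with 1.7 ng/mL IL-12 (final). Compound was added 1 hr beforehand at 37° C, 0.1% DMSO final.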

Sequence of JAK2 (O60674 whole entry): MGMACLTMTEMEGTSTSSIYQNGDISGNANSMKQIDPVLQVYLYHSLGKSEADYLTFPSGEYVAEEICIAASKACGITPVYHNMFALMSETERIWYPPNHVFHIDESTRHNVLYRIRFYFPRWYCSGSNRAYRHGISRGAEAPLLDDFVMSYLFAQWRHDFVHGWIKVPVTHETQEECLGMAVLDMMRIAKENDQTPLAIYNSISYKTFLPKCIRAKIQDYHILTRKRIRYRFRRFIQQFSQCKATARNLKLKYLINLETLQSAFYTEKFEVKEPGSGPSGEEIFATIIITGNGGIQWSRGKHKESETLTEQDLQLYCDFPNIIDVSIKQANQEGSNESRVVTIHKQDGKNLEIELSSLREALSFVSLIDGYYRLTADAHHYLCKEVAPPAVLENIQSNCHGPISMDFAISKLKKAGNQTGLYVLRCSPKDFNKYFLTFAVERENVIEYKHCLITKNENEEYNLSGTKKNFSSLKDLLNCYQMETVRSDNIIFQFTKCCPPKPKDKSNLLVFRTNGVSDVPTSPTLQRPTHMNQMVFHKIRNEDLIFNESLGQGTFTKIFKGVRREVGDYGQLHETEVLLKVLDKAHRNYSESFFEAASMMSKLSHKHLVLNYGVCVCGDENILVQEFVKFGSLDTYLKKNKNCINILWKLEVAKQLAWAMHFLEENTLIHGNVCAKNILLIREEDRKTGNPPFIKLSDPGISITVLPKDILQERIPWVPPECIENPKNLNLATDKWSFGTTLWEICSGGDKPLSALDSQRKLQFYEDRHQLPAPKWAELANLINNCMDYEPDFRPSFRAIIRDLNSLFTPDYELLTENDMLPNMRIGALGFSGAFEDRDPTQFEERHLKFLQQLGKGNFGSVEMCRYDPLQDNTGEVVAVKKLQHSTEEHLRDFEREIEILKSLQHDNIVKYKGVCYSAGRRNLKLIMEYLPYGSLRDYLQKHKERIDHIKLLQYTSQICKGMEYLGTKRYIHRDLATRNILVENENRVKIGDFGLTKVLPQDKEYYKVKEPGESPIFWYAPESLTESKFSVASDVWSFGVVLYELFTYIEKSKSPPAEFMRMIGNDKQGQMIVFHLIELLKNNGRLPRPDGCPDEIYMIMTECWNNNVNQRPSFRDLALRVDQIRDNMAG
Sequence of TYK2 (P29597 whole entry): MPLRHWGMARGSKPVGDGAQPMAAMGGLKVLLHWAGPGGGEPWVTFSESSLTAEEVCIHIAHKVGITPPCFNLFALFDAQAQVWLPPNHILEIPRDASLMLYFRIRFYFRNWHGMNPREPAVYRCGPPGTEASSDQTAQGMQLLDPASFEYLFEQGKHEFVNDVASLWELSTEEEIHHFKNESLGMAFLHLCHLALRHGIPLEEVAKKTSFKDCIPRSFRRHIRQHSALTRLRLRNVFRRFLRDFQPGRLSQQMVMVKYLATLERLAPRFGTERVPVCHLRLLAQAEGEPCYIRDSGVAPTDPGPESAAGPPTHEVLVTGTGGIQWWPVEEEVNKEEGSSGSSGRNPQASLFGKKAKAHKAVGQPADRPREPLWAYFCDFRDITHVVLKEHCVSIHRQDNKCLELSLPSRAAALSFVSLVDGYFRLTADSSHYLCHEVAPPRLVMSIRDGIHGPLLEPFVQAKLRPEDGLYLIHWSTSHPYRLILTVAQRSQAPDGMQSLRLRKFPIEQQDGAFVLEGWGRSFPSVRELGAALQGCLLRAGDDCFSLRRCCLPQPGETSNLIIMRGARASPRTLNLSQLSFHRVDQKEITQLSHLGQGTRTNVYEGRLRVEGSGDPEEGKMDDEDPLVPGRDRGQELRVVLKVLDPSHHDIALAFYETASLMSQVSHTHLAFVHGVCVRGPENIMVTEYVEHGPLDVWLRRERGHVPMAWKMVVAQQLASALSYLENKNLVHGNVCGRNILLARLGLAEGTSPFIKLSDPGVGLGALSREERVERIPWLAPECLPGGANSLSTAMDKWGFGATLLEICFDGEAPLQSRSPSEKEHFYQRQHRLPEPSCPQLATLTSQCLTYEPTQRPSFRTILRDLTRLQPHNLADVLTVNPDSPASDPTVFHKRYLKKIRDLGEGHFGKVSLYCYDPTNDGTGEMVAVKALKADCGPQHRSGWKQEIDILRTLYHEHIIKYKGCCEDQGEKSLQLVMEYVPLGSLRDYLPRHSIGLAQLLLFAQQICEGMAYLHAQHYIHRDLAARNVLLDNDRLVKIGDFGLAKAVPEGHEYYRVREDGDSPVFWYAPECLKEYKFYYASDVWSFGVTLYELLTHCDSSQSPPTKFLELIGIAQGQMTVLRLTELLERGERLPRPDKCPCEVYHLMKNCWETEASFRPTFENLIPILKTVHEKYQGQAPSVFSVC
Sequence of human TYK2 (JH2domain-pseudokinase) (P29597 556-888): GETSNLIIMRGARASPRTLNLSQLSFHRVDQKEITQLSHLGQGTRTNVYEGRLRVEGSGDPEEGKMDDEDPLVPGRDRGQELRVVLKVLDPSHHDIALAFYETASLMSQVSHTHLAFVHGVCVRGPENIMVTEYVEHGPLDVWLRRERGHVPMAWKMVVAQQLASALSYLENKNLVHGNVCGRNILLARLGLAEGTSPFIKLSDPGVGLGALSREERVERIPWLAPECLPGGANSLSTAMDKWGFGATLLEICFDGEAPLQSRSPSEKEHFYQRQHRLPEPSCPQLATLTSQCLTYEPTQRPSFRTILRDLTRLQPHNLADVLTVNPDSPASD

Row | Compound | Kd [1] [nM] | inhibition at 10 µM [2] [%] | inhibition at 10 µM [3] [%] | IC50 [4] [µM]
1 | CNc1cc(Nc2cccn(C3CC(F)(F)C3)c2=O)nc2c(C(=O)N[C@@H]3CC[C@H]3OC)cnn12 [Compound I-48, 5-((1-(3,3-Difluorocyclobutyl)-2-oxo-1,2-dihydropyridin-3-yl)amino)-N-((1R,2R)-2-methoxycyclobutyl)-7-(methylamino)pyrazolo[1,5-a]pyrimidine-3-carboxamide] | < 0.2 | < 50 | < 50 | < 0.1
2 | CNc1cc(Nc2cccn([C@@H]3CCOC[C@@H]3OC)c2=O)nc2c(-c3cn(C(C)C)nn3)cnn12 [Compound I-116, 3-((3-(1-Isopropyl-1H-1,2,3-triazol-4-yl)-7-(methylamino)pyrazolo[1,5-a]pyrimidin-5-yl)amino)-1-((3R,4R)-3-methoxytetrahydro-2H-pyran-4-yl)pyridin-2(1H)-one] | 1 to 10 | < 50 | < 50 | 
3 | CNc1cc(Nc2cccn([C@H]3CCCOC3)c2=O)nc2c(C(=O)N[C@H]3CCC[C@](C)(OC)C3)cnn12 [Compound I-95, N-((1S,3S)-3-Methoxy-3-methylcyclohexyl)-7-(methylamino)-5-((2-oxo-1-((S)-tetrahydro-2H-pyran-3-yl)-1,2-dihydropyridin-3-yl)amino)pyrazolo[1,5-a]pyrimidine-3-carboxamide] | 1 to 10 | < 50 | < 50 | 
4 | CNc1cc(Nc2cccn(C3CCC[C@@](C)(O)C3)c2=O)nc2c(C(=O)NC3CC3)cnn12 (stereo in doubt) [Compound I-1, N-Cyclopropyl-5-((1-(3-hydroxy-3-methylcyclohexyl)-2-oxo-1,2-dihydropyridin-3-yl)amino)-7-(methylamino)pyrazolo[1,5-a]pyrimidine-3-carboxamide] | < 0.2 | < 50 | < 50 | > 1
5 | CNc1cc(Nc2cccn(C3CC(F)(F)C3)c2=O)nc2c(C(=O)N[C@H]3CC[C@@H](O)C3)cnn12 [Compound I-37, 5-((1-(3,3-Difluorocyclobutyl)-2-oxo-1,2-dihydropyridin-3-yl)amino)-N-((1S,3R)-3-hydroxycyclopentyl)-7-(methylamino)pyrazolo[1,5-a]pyrimidine-3-carboxamide] | 0.2 to 1 | < 50 | < 50 | 
6 | CNc1cc(Nc2cccn([C@H]3CCOC[C@H]3OC)c2=O)nc2c(-c3cn(C(C)C)nn3)cnn12 [Compound I-117, 3-((3-(1-Isopropyl-1H-1,2,3-triazol-4-yl)-7-(methylamino)pyrazolo[1,5-a]pyrimidin-5-yl)amino)-1-((3S,4S)-3-methoxytetrahydro-2H-pyran-4-yl)pyridin-2(1H)-one] | > 10 | < 50 | < 50 | 
7 | CNc1cc(Nc2cccn(-c3ccccn3)c2=O)nc2c(C(=O)N[C@H]3CC[C@H](OC)C3)cnn12 [Compound I-68, N-((1S,3S)-3-Methoxycyclopentyl)-7-(methylamino)-5-((2-oxo-2H-[1,2′-bipyridin]-3-yl)amino)pyrazolo[1,5-a]pyrimidine-3-carboxamide] | […] | < 50 | < 50 | 
8 | CNc1cc(-c2cn(C3CCOCC3)c3ncc(F)cc23)nc2c(C(=O)N[C@@H]3CC[C@H]3O)cnn12 [Compound I-19, 5-(5-Fluoro-1-(tetrahydro-2H-pyran-4-yl)-1H-pyrrolo[2,3-b]pyridin-3-yl)-N-((1R,2R)-2-hydroxycyclobutyl)-7-(methylamino)pyrazolo[1,5-a]pyrimidine-3-carboxamide] | 0.2 to 1 | < 50 | < 50 | 
9 | CNc1cc(Nc2cccn(C3CC(F)(F)C3)c2=O)nc2c(C(=O)N[C@H]3CC[C@@H]3OC)cnn12 [Compound I-47, 5-((1-(3,3-Difluorocyclobutyl)-2-oxo-1,2-dihydropyridin-3-yl)amino)-N-((1S,2S)-2-methoxycyclobutyl)-7-(methylamino)pyrazolo[1,5-a]pyrimidine-3-carboxamide] | > 10 | < 50 | < 50 | 
10 | CNc1cc(Nc2cccn(C3CC(F)(F)C3)c2=O)nc2c(C(=O)N[C@@H]3CC[C@H](O)C3)cnn12 [Compound I-36, 5-((1-(3,3-Difluorocyclobutyl)-2-oxo-1,2-dihydropyridin-3-yl)amino)-N-((1R,3S)-3-hydroxycyclopentyl)-7-(methylamino)pyrazolo[1,5-a]pyrimidine-3-carboxamide] | 0.2 to 1 | < 50 | < 50 | 
11 | CNc1cc(Nc2cccn([C@H]3CCCOC3)c2=O)nc2c(C(=O)N[C@@H]3CCC[C@@](C)(OC)C3)cnn12 [Compound I-94, N-((1R,3R)-3-Methoxy-3-methylcyclohexyl)-7-(methylamino)-5-((2-oxo-1-((S)-tetrahydro-2H-pyran-3-yl)-1,2-dihydropyridin-3-yl)amino)pyrazolo[1,5-a]pyrimidine-3-carboxamide] | 1 to 10 | < 50 | < 50 | 
